What was measured:
[1] = Antioxidant activity assessed as DPPH radical scavenged per mole of compound after 20 mins; type: functional
Tyrosinase [2] = target: T1, Tyrosinase (Homo sapiens, UniProt P14679); assay: Drug level treated with 10 mM epirhododendrin assessed as tyrosinase (unknown origin)-mediated redox transformation in presence of vitamin C by HPLC analysis; type: ADME
T1 sequence (P14679 whole entry): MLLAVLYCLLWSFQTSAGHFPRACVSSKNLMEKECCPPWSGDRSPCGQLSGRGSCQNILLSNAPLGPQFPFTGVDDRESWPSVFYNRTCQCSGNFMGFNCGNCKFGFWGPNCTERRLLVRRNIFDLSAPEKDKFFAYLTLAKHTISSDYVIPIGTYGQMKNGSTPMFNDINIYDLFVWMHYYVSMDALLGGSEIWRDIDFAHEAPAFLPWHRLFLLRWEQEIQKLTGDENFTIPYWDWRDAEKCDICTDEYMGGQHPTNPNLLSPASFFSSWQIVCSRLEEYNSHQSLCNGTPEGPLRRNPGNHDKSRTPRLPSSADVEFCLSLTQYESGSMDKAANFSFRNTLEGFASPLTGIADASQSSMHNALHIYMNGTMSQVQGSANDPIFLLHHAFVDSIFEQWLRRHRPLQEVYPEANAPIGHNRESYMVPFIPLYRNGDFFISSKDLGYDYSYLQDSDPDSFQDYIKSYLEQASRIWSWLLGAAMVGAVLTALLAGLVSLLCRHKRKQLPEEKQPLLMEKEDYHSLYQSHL

Tyrosinase [3] = target: T1, Tyrosinase; assay: Drug metabolism assessed as tyrosinase (unknown origin)-mediated redox transformation by measuring sonnerphenolic C formation at 10 mM in presence of vitamin C by HPLC analysis; type: ADME; settings: 10000 µM

| Drug metabolism (Tyrosinase [2]) | Drug metabolism (Tyrosinase [3]) | Compound | Activity [1] |
| --- | --- | --- | --- |
| Metabolite_Detected |  | C[C@@H](CCc1ccc(O)c(O)c1)O[C@@H]1O[C@H](CO)[C@@H](O)[C@H](O)[C@H]1O | 2.23 mol |
|  | Metabolite_Detected | C[C@@H](CCc1ccc(O)cc1)O[C@@H]1O[C@H](CO)[C@@H](O)[C@H](O)[C@H]1O | 0 mol |
|  |  | VITAMIN E | 1.86 mol |
